pIC50, pKd: −log10 of the molar value.
Tests used:
[1] = tested on: Axl phosphorylation in transiently transfected HEK293T cells; assay: Cellular Axl phosphorylation assay; assay type: cell-based; conditions: Homo sapiens, HEK-293T; HEK293T cells transfected with Axl, 1 hour compound treatment, Phospho-Axl vs Total-Axl
Procedure, shortened: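 Axl-RTK was overexpressed by transfection in HEK293T cells to drive trans-autophosphorylation; cells were exposed to test compound for 1 hour. Phospho-Axl and total Axl were captured in lysates and detected by MSD electrochemiluminescence. IC50 was set between the DMSO group and the empty-vector-transfected minimum.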

Axl = biological target: T1, Axl (Homo sapiens, UniProt P30530); assay: LanthaScreen Eu kinase binding assay, Axl; conditions: Tracer 236
T1 construct: purchased Life Technologies
T1 sequence (P30530 26-894): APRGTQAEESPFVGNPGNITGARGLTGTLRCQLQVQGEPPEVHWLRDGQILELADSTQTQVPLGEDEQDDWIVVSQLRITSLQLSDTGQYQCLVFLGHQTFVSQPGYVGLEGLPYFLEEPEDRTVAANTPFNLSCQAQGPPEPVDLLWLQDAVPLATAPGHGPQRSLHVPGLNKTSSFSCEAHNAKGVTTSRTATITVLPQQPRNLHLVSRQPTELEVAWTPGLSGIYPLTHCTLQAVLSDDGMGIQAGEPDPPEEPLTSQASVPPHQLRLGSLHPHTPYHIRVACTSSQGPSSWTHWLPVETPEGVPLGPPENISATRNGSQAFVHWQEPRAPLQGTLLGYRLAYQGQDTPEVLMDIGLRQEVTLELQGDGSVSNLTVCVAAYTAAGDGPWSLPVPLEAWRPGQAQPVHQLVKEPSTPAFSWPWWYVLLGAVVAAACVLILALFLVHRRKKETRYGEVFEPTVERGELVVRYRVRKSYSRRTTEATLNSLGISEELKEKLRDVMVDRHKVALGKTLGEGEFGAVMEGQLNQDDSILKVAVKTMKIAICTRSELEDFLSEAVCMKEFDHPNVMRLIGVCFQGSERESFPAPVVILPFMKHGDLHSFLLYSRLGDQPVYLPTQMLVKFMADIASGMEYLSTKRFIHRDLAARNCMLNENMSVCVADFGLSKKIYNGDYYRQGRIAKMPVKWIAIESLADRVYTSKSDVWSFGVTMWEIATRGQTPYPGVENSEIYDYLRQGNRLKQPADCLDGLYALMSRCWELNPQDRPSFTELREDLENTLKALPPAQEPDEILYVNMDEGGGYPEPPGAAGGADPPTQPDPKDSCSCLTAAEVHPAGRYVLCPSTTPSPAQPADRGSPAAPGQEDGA

HCC827/ER cells = assay: WST-1 cell viability assay in erlotinib-resistant cells; conditions: compound combined with Erlotinib at constant 1:1 ratio, 3 days, FBS 1%
Description: The killed cells were discarded and the remaining cells were cultured in a drug-free medium up to 80% confluence. Subsequently, cells were continuously exposed to increasing drug doses of up to 10 μM over a period of 8 months.
HCC827/ER cells were seeded in a 96-well plate with their respective media containing 10% FBS at 5000 cells/well. After seeding, the HCC827/ER cells were incubated for approximately 24 hours. […] The viability of the HCC827/ER cells was determined by adding WST-1 reagent according to Manufacturer's instructions (DoGenbio co., Ltd) and incubating for four hours. The plates were then read using an absorbance of 440 nm on Tecan Microplate reader (Infinite M200 pro, TECAN). The HCC827/ER cells' viability were calculated relative to vehicle (DMSO) control wells.

Row | pKd (Axl) | SMILES | pIC50 [1] | Combination effect of compound and erlotinib on inhibition activity in Erlotinib-resistant cell-line (HCC827/ER cells)
1 | > 7.00 | CCOc1cn(CCOC(F)(F)F)nc1C(=O)Nc1ccc(Oc2ccnc3cc(OC)c(OC)cc23)cn1 [Compound 38] | > 7.00 | synergistic effect
2 | > 7.00 | CCC(C)Oc1cc2nccc(Oc3ccc(NC(=O)c4nn(-c5cccnc5)cc4OCC(F)(F)F)nc3)c2cc1OC (centres unmarked) [Compound 234] | > 7.00 | –
3 | > 7.00 | COc1cc2nccc(Oc3ccc(NC(=O)c4nn(-c5cnc(Cl)cn5)cc4OCC(F)(F)F)nc3)c2cc1OC [Compound 236] | > 7.00 | –
4 | > 7.00 | COc1cc2nccc(Oc3ccc(NC(=O)c4nn(-c5cnc(N)nc5)cc4OCC(F)(F)F)nc3)c2cc1OC [Compound 237] | > 7.00 | –
5 | > 7.00 | COc1cc2nccc(Oc3ccc(NC(=O)c4nn(-c5cccnc5)cc4OCC4CC4)nc3)c2cc1OC(F)(F)F [Compound 239] | > 7.00 | –
6 | > 7.00 | COc1cc2nccc(Oc3ccc(NC(=O)c4nn(-c5cnc(N)nc5)cc4OCC4CC4)nc3)c2cc1OC [Compound 240] | > 7.00 | –
7 | > 7.00 | CCOc1cn(-c2cnc(N)nc2)nc1C(=O)Nc1ccc(Oc2ccnc3cc(OC)c(OC(F)(F)F)cc23)cn1 [Compound 241] | > 7.00 | –
8 | ≤ 6.00 | CCOc1cn(-c2cnc(N)nc2)nc1C(=O)Nc1ccc(Oc2ccnc3cc(OC)c(OC(F)(F)F)cc23)cc1F [Compound 242] | 6.00 to 7.00 | –
9 | > 7.00 | COc1cc2c(Oc3ccc(NC(=O)c4nn(-c5cnc(N)nc5)cc4OCC(F)(F)F)c(F)c3)ccnc2cc1OC(C)C [Compound 243] | > 7.00 | –
10 | > 7.00 | COc1cc2nccc(Oc3ccc(NC(=O)c4nn(-c5ccc(OC(F)(F)F)cc5Cl)cc4OCC4CC4)nc3)c2cc1OC [Compound 244] | > 7.00 | –
11 | > 7.00 | COc1cc2c(Oc3ccc(NC(=O)c4nn(-c5cnc(N)cn5)cc4OCC(F)(F)F)c(F)c3)ccnc2cc1OC(C)C [Compound 246] | > 7.00 | –
12 | > 7.00 | COc1cc2nccc(Oc3ccc(NC(=O)c4nn(-c5cnccc5C(F)(F)F)cc4OCC4CC4)nc3)c2cc1OC [Compound 247] | > 7.00 | –
13 | > 7.00 | COc1cc2nccc(Oc3ccc(NC(=O)c4nn(-c5cnc(N)cn5)cc4OCC(F)(F)F)nc3)c2cc1OC [Compound 248] | > 7.00 | –
14 | > 7.00 | COc1cc2nccc(Oc3ccc(NC(=O)c4nn(-c5cnc(N)cn5)cc4OCC4CC4)nc3)c2cc1OC [Compound 249] | > 7.00 | –
15 | > 7.00 | COc1cc2nccc(Oc3ccc(NC(=O)c4nn(-c5cnc(N)cn5)cc4OCC(F)(F)F)c(F)c3)c2cc1OC [Compound 252] | > 7.00 | –
16 | > 7.00 | COc1cc2c(Oc3ccc(NC(=O)c4nn(-c5cnc(N)cn5)cc4OCC(F)(F)F)nc3)ccnc2cc1OC(C)C [Compound 253] | > 7.00 | –
17 | > 7.00 | COc1cc2nccc(Oc3ccc(NC(=O)c4nn(-c5cnc(N)nc5)cc4OC(F)F)nc3)c2cc1OC [Compound 254] | > 7.00 | –
18 | > 7.00 | COc1cc2nccc(Oc3ccc(NC(=O)c4nn(-c5cccnc5)cc4OCC4CC4)nc3)c2cc1OC [Compound 255] | > 7.00 | –

Row | pKd (Axl) | SMILES | pIC50 [1] | Combination effect of compound and erlotinib on inhibition activity in Erlotinib-resistant cell-line (HCC827/ER cells)
19 | > 7.00 | COc1cc2c(Oc3ccc(NC(=O)c4nn(-c5cnc(N)nc5)cc4OCC(F)(F)F)nc3)ccnc2cc1OC(C)C [Compound 257] | > 7.00 | –
20 | > 7.00 | COc1cc2nccc(Oc3ccc(NC(=O)c4nn(-c5ccc(F)cc5C)cc4OCC4CC4)nc3)c2cc1OC [Compound 258] | > 7.00 | –
21 | > 7.00 | COc1cc2nccc(Oc3ccc(NC(=O)c4nn(-c5cnc(N)nc5)cc4OCC(F)(F)F)c(F)c3)c2cc1OC [Compound 259] | > 7.00 | –
22 | > 7.00 | COc1cc2nccc(Oc3ccc(NC(=O)c4nn(-c5cnc(N)nc5)cc4OC(C)C)nc3)c2cc1OC [Compound 260] | > 7.00 | –
23 | > 7.00 | COc1cc2nccc(Oc3ccc(NC(=O)c4nn(-c5cncnc5C5CC5)cc4OCC(F)(F)F)nc3)c2cc1OC [Compound 261] | > 7.00 | –
24 | > 7.00 | COc1cc2nccc(Oc3ccc(NC(=O)c4nn(-c5cnc(N)nc5)cc4OCC4CCC4)nc3)c2cc1OC [Compound 262] | > 7.00 | –
25 | > 7.00 | COc1cc2nccc(Oc3ccc(NC(=O)c4nn(-c5ccc(F)cc5Cl)cc4OCC4CC4)nc3)c2cc1OC [Compound 263] | > 7.00 | –
26 | > 7.00 | COc1cc2nccc(Oc3ccc(NC(=O)c4nn(-c5ccc(F)cc5OC)cc4OCC4CC4)nc3)c2cc1OC [Compound 264] | > 7.00 | –
27 | 6.00 to 7.00 | COc1cc2nccc(Oc3ccc(NC(=O)c4nn(-c5cnc(N)nc5)cc4OCC4CNC4)nc3)c2cc1OC [Compound 265] | ≤ 6.00 | –
28 | > 7.00 | COc1cc2nccc(Oc3ccc(NC(=O)c4nn(-c5ccc(F)cc5N5CCOCC5)cc4OCC4CC4)nc3)c2cc1OC [Compound 266] | > 7.00 | –
29 | > 7.00 | COc1cc2nccc(Oc3ccc(NC(=O)c4nn(-c5ccc(F)cc5F)cc4OCC4CC4)nc3)c2cc1OC [Compound 267] | > 7.00 | –
30 | > 7.00 | COc1cc2nccc(Oc3ccc(NC(=O)c4nn(-c5ccc(F)cc5F)cc4OCC(F)(F)F)nc3)c2cc1OC [Compound 268] | > 7.00 | –
31 | > 7.00 | COc1cc2nccc(Oc3ccc(NC(=O)c4nn(-c5cnc(N)nc5)cc4OCC4COC4)nc3)c2cc1OC [Compound 269] | > 7.00 | –
32 | 6.00 to 7.00 | COc1cc2nccc(Oc3ccc(NC(=O)c4nn(-c5ccc(F)cc5C5CCCC5)cc4OCC4CC4)nc3)c2cc1OC [Compound 270] | > 7.00 | –
33 | 6.00 to 7.00 | COc1cc2nccc(Oc3ccc(NC(=O)c4nn(-c5ccc(F)cc5Oc5ccccc5)cc4OCC4CC4)nc3)c2cc1OC [Compound 272] | > 7.00 | –
34 | > 7.00 | COc1cc2nccc(Oc3ccc(NC(=O)c4nn(-c5ccc(F)cc5C(C)=O)cc4OCC4CC4)nc3)c2cc1OC [Compound 273] | > 7.00 | –
35 | > 7.00 | COc1cc2nccc(Oc3ccc(NC(=O)c4nn(-c5ccc(F)c(C(C)=O)c5)cc4OCC4CC4)nc3)c2cc1OC [Compound 274] | > 7.00 | –

Reference: patent US10934274B2, “Quinoline derivatives as TAM RTK inhibitors” (Qurient Co., Ltd., priority 2015, dated 2021)
